Entries after “also recorded” stand apart in the source; their conditions may differ.
Legend:
[1] = test system: Hypoxia-induced pulmonary hypertension mice; experiment: Hypoxia-induced pulmonary hypertension mice, right heart catheterization; assay type: in vivo, mice (C57/BL6); conditions: hypoxia (10% oxygen) 3 weeks, intravenous once daily, itraconazole 20 mg/kg/day, mebendazole 25 mg/kg/day, vs vehicle; for right ventricular systolic pressure: FIG. 1
Experimental: (§1) Hypoxia-induced pulmonary hypertension mice serving as a model generally used in an animal experiment for pulmonary hypertension were intravenously administered itraconazole or mebendazole. Specifically, first, 8-week-old male wild-type mice (C57/BL6 mice, n=10 per group) were housed in a transparent acrylic box with an oxygen concentration controlled to 10% using a hypoxia generator (Teijin Limited, Japan) under a 12 h light and dark cycle. The mice were stimulated by hypoxia for 3 weeks, and in this period, were intravenously injected with itraconazole (the following solution was used as itraconazole: 100 mg of itraconazole was dissolved in 6.7 ml of dimethyl sulfoxide, and the solution of itraconazole in dimethyl sulfoxide was mixed with ultrapure water (mQ or ultrapure water) to prepare a 100 ml solution) once daily at a dose of 20 mg/kg/day. As a Vihicle group, the following test was performed: the mice were stimulated by hypoxia in the same manner as described above except that the mice were intravenously injected with a 1:15 (V/V) mixed solution of dimethyl sulfoxide and ultrapure water in place of itraconazole as a diet. In addition, a mebendazole administration test for hypoxia-induced pulmonary hypertension mice was performed in the same manner as described above except that the mice were intravenously injected with mebendazole in place of itraconazole (the following solution was used as mebendazole: 100 mg of mebendazole was dissolved in 6.7 ml of dimethyl sulfoxide, and the solution of mebendazole in dimethyl sulfoxide was mixed with ultrapure water (mQ or ultrapure water) to prepare a 100 ml solution) at a dose of 25 mg/kg/day.
After the hypoxic stimulation for 3 weeks, a 1.2-Fr catheter (SciSense Inc., Ontario, Canada) was inserted in the jugular vein of the mice under isoflurane anesthesia and advanced into the right ventricle to measure a right ventricular systolic pressure. The average body weights of the Vehicle group, the itraconazole administration group, and the mebendazole administration group before the test were 16.3±0.2 g, 16.8±0.3 g, and 16.8.±0.3 g, respectively. In addition, the average body weights of the Vehicle group, the itraconazole administration group, and the mebendazole administration group after the test were 18.±0.2 g, 17.2±0.2 g, and 17.5±0.2 g, respectively.

[2] = Body weight of hypoxia-induced pulmonary hypertension mice; assay type: in vivo, mice (C57/BL6); conditions: for average body weight after the test: after 3 weeks hypoxia and once daily intravenous dosing, itraconazole 20 mg/kg/day, mebendazole 25 mg/kg/day
Experimental: as §1
After the hypoxic stimulation for 3 weeks, a 1.2-Fr catheter (SciSense Inc., Ontario, Canada) was inserted in the jugular vein of the mice under isoflurane anesthesia and advanced into the right ventricle to measure a right ventricular systolic pressure. […]

[3] = test system: pulmonary artery smooth muscle cells; experiment: Excessive proliferation of pulmonary artery smooth muscle cells (compound investigation); assay type: cell-based
Text: Under such circumstances, the inventors of the present invention have investigated thousands of kinds of compounds. […] The present invention is based on such novel findings.

[4] = test system: Sugen/hypoxia-induced hypertension rat model; experiment: Sugen/hypoxia-induced pulmonary hypertension rat model, RVSP and RVH; assay type: in vivo, rats (Sprague-Dawley)
Experimental: In this test, a vehicle treatment group was used as a control. A Sugen/hypoxia-induced hypertension rat model was used to assess pulmonary hypertension (PH) (Non-patent Literature 2). In order to assess the development of pulmonary hypertension, right ventricular systolic pressure (RVSP) and right ventricular hypertrophy (RVH) were measured (Non-patent Literatures 2 to 4).
For right heart catheterization, a 1.4-F (for rats) pressure measurement catheter (Transonic Scisense) was inserted into the right jugular vein and advanced into the right ventricle to measure RVSP (Non-patent Literature 5).
In the Sugen/hypoxia model, rats (Sprague-Dawley, male, 6-week-old) were injected subcutaneously with a VEGF-receptor inhibitor SU5416 (Sigma-Aldrich, St Louis, Mo.) (20 mg per kg body weight) under isoflurane anesthesia and were then exposed to hypoxia (10% O2) for 3 weeks. After the indicated period of treatment below, the rats were anesthetized with isoflurane (1.5%) to perform right heart catheterization. All data were analyzed using the PowerLab data acquisition system (AD Instruments, Bella Vista, Australia) and were averaged over 50 sequential beats (Non-patent Literatures 2 to 5).
Hearts were dissected and the right ventricular free wall (RV) was removed from the left ventricle (LV) and septum. The ratio of right ventricular free wall (RV) weight to left ventricle plus septum (LV+Septum) weight [RV/(LV+S)] was measured to assess the extent of RVH (Non-patent Literature 2).
Rats (Sprague-Dawley, male, 6-week-old) were injected subcutaneously with a VEGF-receptor inhibitor SU5416 (Sigma-Aldrich) (20 mg per kg body weight) under isoflurane anesthesia and were then exposed to hypoxia (10% 02) for 3 weeks (hypoxia+SU5416). On day 21, the rats were randomized to be intravenously injected with mebendazole (25 mg per kg body weight) or vehicle (the rats were administered dimethyl sulfoxide in place of mebendazole solution) once daily under normoxia (21% O2) for 2 weeks. The vehicle administration group is expressed as vehicle control. […] Thus, the development of PH was assessed.

[5] = Body weight of rats with Sugen/hypoxia-induced PH; assay type: in vivo, rats (Sprague-Dawley); conditions: mebendazole 25 mg per kg intravenously once daily for 14 days, vs vehicle control
Experimental: Rats (Sprague-Dawley, male, 6-week-old) were injected subcutaneously with a VEGF-receptor inhibitor SU5416 (Sigma-Aldrich) (20 mg per kg body weight) under isoflurane anesthesia and were then exposed to hypoxia (10% 02) for 3 weeks (hypoxia+SU5416). On day 21, the rats were randomized to be intravenously injected with mebendazole (25 mg per kg body weight) or vehicle (the rats were administered dimethyl sulfoxide in place of mebendazole solution) once daily under normoxia (21% O2) for 2 weeks. The vehicle administration group is expressed as vehicle control. […] On day 35, the rats were anesthetized with isoflurane (1.0%) to measure RVSP and RVH. Thus, the development of PH was assessed.

[6] = hypoxia+SU5416 3 weeks, then mebendazole 25 mg per kg intravenously once daily for 2 weeks under normoxia, day 35, vs vehicle control, FIG. 2

CCC(C)n1ncn(-c2ccc(N3CCN(c4ccc(OC[C@H]5CO[C@](Cn6cncn6)(c6ccc(Cl)cc6Cl)O5)cc4)CC3)cc2)c1=O (stereo partly shown) [itraconazole]
right ventricular hypertrophy [1]: Significant reductions
right ventricular systolic pressure [1]: Significant reductions
average body weight after the test [2]: 17.2 ± 0.2 g
average body weight before the test ([2]; before the test (baseline), mice n=10 per group): 16.8 ± 0.3 g
excessive proliferation of pulmonary artery smooth muscle cells [3]: suppresses excessive proliferation

COC(=O)Nc1nc2ccc(C(=O)c3ccccc3)cc2[nH]1 [mebendazole, methyl (5-benzoyl-1H-benzo[d]imidazol-2-yl)carbamate]
PH in the animal model in vivo ([4]; Sugen/hypoxia rats, mebendazole 25 mg per kg intravenously once daily for 14 days): ameliorated
right ventricular hypertrophy (RVH), RV/(LV+S) [4, 6]: reduced
right ventricular systolic pressure (RVSP) [4, 6]: reduced
right ventricular hypertrophy [1]: Significant reductions
right ventricular systolic pressure [1]: Significant reductions
body weight [5]: no significant difference; also recorded: no influence
average body weight after the test [2]: 17.5 ± 0.2 g
excessive proliferation of pulmonary artery smooth muscle cells [3]: suppresses excessive proliferation

Source: patent publication US11369601B2, “Prophylactic or therapeutic agent for pulmonary hypertension comprising mebendazole and/or itraconazole or salt thereof” (TOHOKU UNIVERSITY, priority 2017, dated 2022)
